From publication PMC12926254, “Novel pyrazole carboxylate derivatives as lonazolac bioisosteres with selective COX-2 inhibition: design, synthesis and anti-inflammatory activity” (Molecular Diversity, 2025)
Marks after values point to notes of the source that are not given here.

What was measured:
15-LOX = biological target: T1, 15-LOX (Glycine max, UniProt P08170); experiment: In vitro 15-LOX inhibition (Lipoxygenase Inhibitor Screening assay Kit 760700, Cayman); format: biochemical; conditions: mean of six values ± standard deviation
T1 construct: purchased Cayman Chemical 760,700
T1 sequence (P08170 1-839): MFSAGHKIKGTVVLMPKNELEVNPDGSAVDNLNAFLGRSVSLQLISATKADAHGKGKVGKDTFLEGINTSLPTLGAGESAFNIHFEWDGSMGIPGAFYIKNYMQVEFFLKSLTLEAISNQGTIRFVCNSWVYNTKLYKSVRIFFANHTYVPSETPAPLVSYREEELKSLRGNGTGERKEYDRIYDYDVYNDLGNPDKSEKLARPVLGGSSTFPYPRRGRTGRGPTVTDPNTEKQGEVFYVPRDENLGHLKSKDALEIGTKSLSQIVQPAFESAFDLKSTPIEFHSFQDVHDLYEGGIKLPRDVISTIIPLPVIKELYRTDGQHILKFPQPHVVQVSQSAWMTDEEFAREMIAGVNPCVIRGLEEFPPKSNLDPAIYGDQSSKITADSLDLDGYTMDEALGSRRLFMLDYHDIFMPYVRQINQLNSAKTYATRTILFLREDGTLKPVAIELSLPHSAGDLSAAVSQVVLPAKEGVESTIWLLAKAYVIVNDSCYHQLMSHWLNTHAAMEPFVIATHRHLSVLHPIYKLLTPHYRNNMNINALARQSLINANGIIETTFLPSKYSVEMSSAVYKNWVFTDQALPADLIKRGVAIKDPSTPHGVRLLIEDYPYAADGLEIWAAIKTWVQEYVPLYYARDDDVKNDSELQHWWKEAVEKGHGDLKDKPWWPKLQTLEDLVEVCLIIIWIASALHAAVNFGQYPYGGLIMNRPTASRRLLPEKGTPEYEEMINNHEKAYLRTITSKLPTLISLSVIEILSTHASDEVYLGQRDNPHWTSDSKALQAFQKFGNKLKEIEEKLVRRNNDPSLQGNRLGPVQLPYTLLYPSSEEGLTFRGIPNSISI
Experimental: 15-LOX inhibitor screening protocol: Blank wells: 100 µl of assay buffer was added to at least two wells, Positive control wells: 90 µl of 15-LOX standard was added to 10 µl of assay buffer to at least two wells, 100% initial activity wells: 90 µl of Lipoxygenase enzyme was added to 10 µl of solvent to at least two wells, Inhibitor wells: 90 µl of Lipoxygenase enzyme was added to 10 µl of inhibitor wells to. It was incubated for five minutes at room temperature. The reaction was initiated by adding 10 µl of substrate to all the wells. 96well-plates were placed on a shaker for at least 10 min. 100 µl of chromogen was added to each well to stop the enzyme catalysis. The reaction was covered with plate cover. 96well-plates were placed on a shaker for at least 5 min. The cover was removed and absorbance was read using plate reader at absorbance 490–500 nm.

iNOS = experiment: Inducible nitric oxide synthase (iNOS) inhibition in LPS-induced RAW 264.7 cells (ELISA); format: cell-based; conditions: Mus musculus, RAW264.7
Excerpt: NO is produced from L-arginine by iNOS and is utilized in a variety of cell signaling processes. An inducible member of the NOS family, iNOS is increased during pro-inflammatory cytokine activity as a host-defense mechanism. A commercially available quantitative ELISA kit (ab253219 Mouse iNOS Simple Step ELISA® Kit) will be used to evaluate the iNOS enzyme activity of the substances in the cell lysate in accordance with the manufacturer’s instructions.

[1] = test system: carrageenan-induced rat paw edema; experiment: Carrageenan-induced rat paw edema assay; format: in vivo; conditions: for % inhibition (edema) / Paw edema % inhibition / Paw edema thickness ± SEM: 50 mg/kg; for Paw edema % inhibition / Paw edema thickness ± SEM: rat; for ED50: Rattus norvegicus, dose producing 50% edema inhibition
Experimental: As previously described, paw thickness was evaluated at 1, 3, and 5 h following carrageenan injection at a dose of 50 mg/kg.

gastric mucosa = experiment: Ulcerogenic liability (ulcer index); format: in vivo; conditions: 50 mg/kg orally, three successive days, rats
Experimental: […]. […] Rats were divided into 7 groups and fasted for 18 h before drug administration. The control group received the vehicle (2.5% Tween 80). […] After 2 h, animals were fed. Rats were given the required dose orally for three successive days. After 2 h of the last dose, rats were sacrificed; the stomach of each rat was removed then opened along the greater curvature and rinsed with saline. In order to examine the stomach, it was stretched by pins on a corkboard. The gastric mucosa was carefully inspected for the occurrence of ulcers with the aid of an illuminated magnifying lens (l0x), then ulcer index was calculated according to the method described by Cho and Ogle. Lesions were counted and measured along the greater diameter using transparent ruler. Every five hemorrhagic spots were considered equivalent to 1 mm of ulcer. The ulcer index (mm) was calculated from the sum of the total length of ulcers and hemorrhagic spots in each stomach.

5-LOX = biological target: T2, 5-LOX (Homo sapiens, UniProt P09917); experiment: In vitro 5-LOX inhibition (5-Lipoxygenase Inhibitor Screening Kit K980-100, Biovision)
T2 sequence (P09917 1-674): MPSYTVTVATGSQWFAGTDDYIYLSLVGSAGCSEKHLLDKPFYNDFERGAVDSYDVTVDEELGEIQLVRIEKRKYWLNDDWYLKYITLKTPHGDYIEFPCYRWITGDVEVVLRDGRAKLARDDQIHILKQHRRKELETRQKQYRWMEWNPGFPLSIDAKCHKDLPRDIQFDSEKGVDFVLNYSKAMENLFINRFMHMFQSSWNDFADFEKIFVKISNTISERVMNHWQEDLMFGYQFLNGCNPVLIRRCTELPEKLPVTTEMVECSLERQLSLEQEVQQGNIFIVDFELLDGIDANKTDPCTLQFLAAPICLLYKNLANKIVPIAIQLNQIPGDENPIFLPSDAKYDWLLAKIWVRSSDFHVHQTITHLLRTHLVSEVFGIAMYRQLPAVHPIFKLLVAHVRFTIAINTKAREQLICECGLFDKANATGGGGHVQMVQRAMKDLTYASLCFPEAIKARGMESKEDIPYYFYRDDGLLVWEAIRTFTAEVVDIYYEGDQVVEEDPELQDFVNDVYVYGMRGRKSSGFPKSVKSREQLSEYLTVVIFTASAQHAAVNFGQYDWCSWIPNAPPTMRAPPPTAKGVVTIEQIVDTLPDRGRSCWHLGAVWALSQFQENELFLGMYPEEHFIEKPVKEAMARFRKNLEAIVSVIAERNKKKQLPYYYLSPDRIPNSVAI
Experimental: 5-LOX inhibitor Screening Protocol: dissolve the test compounds in DMSO. The solution was prepared at a concentration so that the final 100 µl reaction volume per well contains no more than 2 µl of the test chemical solution added to it. Each well was filled in the 96-well white plate with 2 µl of the test substance. […] To the “Enzyme Control” well, was filled with 40 µl of LOX Assay Buffer. In order to run the required number of assays, enough reagents were mixed. 40 µl of the following mix was prepared for each well: Buffer for Reaction MIx LOX Assay 34 µl LOX Probe 2 µl 5. LOX Enzyme 4 µl After thoroughly mixing, the Reaction Mix was transferred to the wells holding the Test Compounds, Enzyme Control, Inhibitor Control, and “Solvent Control.” substrate was added after 10 min of RT incubation of the plate. The wells shouldn’t contain any bubbles. […] To obtain the 5X solution, the 500 X solution with LOX Assay Buffer was diluted at a ratio of 1:100, depending on the number of reactions to be conducted. For each reaction, 20 µl of 5X solution will be required. How much substrate is needed based on the number of reactions. The final substrate functioning solution needs to be consumed that same day and stored on ice. The remaining stock solution should be immediately stored at -20 °C. 20 µl of 5X LOX Substrate should be added with a multichannel pipette to every well. […] To get the RFU for each sample, the RFU was subtracted at time t1 from the RFU at time t2, making sure that both t2 and t1 fall within the assay's linear range. The slope for each sample (including the “enzyme control”)was multiplied by the time Δt (t2 – t1) to find the ΔRFU. In the equations below, the values was substituted for “Solvent Control” for “Enzyme Control” if the two slopes disagree. %Inhibition=[slopeof(enzymecontrol)-slopeof(testcompound)]/slopeof(enzymecontrol)×100 %Relativeactivity=[slope(testcompound)]/slope(enzymecontrol)×100

Row | IC50 (15-LOX) [nM] | IC50 (iNOS) [nM] | IC50 (5-LOX) [nM] | Compound | % inhibition (edema) [1] [%] | Paw edema % inhibition ([1]; 1 h after carrageenan) [%] | Paw edema thickness ± SEM ([1]; 1 h after carrageenan) [mm] | Paw edema % inhibition ([1]; 3 h after carrageenan) [%] | Paw edema thickness ± SEM ([1]; 3 h after carrageenan) [mm] | Paw edema % inhibition ([1]; 5 h after carrageenan) [%] | Paw edema thickness ± SEM ([1]; 5 h after carrageenan) [mm] | ED50 [1] [mg/kg] | % incidence /10 (gastric mucosa) | Average no of ulcer (gastric mucosa) | Average severity (gastric mucosa)
1 | 488 ± 19 | 610 ± 130 | 813 ± 32 | CCOC(=O)COc1ccc(C2=NN(c3ccc(S(C)(=O)=O)cc3)C(c3ccc(Br)cc3)C2)cc1 (stereo not drawn) [Compound 15 h, Ethyl 2-(4-(5-(4-bromophenyl)-1-(4-(methylsulfonyl)phenyl)-4,5-dihydro-1H-pyrazol-3-yl)phenoxy)acetate] | 82.28 | 54.85 | 2.57 ± 0.0071 | 55.9 | 2.61 ± 0.018 | 59.3 | 2.44 ± 0.0099 | 29.9 | 2 | 0.40 ± 0.006^b | 0.29 ± 0.009***^b
2 | 412 ± 16 | 410 ± 60 | 453 ± 18 | CCOC(=O)COc1ccc(C2=NN(c3ccc(S(C)(=O)=O)cc3)C(c3ccc(OC)cc3)C2)cc1 (stereo not drawn) [Compound 15c, Ethyl 2-(4-(5-(4-methoxyphenyl)-1-(4-(methylsulfonyl)phenyl)-4,5-dihydro-1H-pyrazol-3-yl)phenoxy)acetate] | 70.02 | 38.3 | 3.1 ± 0.002 | 55 | 2.56 ± 0.0034 | 66.1 | 2.1 ± 0.0084 | 24.1 | 2 | 0.55 ± 0.012***^b | 0.17 ± 0.004***^b
3 | 2230 ± 87 | 531 ± 50 | 241 ± 9 | CCOC(=O)COc1ccc(C2=NN(c3ccc(S(C)(=O)=O)cc3)C(c3cc(OC)c(OC)c(OC)c3)C2)cc1 (stereo not drawn) [Compound 15d, Ethyl 2-(4-(1-(4-(methylsulfonyl)phenyl)-5-(3,4,5-trimethoxyphenyl)-4,5-dihydro-1H-pyrazol-3-yl)phenoxy)acetate] | 80.29 | 61.1 | 2.23 ± 0.0045 | 41.9 | 2.79 ± 0.011 | 40 | 2.90 ± 0.002 | 31.2 | 2 | 0.47 ± 0.006^b | 0.51 ± 0.013^b
